Data as given in patent publication US12150938B2, “Biomarker of polycystic kidney disease and uses thereof” (Genzyme Corporation, priority 2015, dated 2024).

Experiments:
AMBP protein = assay: Immunoblot of AMBP protein levels in urine and kidney samples of treated jck mice; type: in vivo, mouse
Procedure: Kidney samples were homogenized in RIPA buffer (Boston BioProducts) including 1 mM DTT, 5 mM EDTA, 2 mM NaF, 1 mM Na3VO4 (all supplied by Sigma-Aldrich), Pefabloc SC and Complete Proteinase Inhibitor Cocktail (both from Roche Applied Science). Protein concentrations were determined by BCA protein assay (Pierce). Urine samples were briefly centrifuged at 3000 RPM for 10 minutes at 4° C. (Beckman Coulter Allegra 6A) to remove cellular debris. An equal volume of urine was diluted in 5× Laemmli Buffer (15% SDS, 0.575 M sucrose, 0.325 M Tris, pH 6.8, 5% beta-mercaptoethanol and 0.002% bromophenol blue). Equal amounts of protein and urine were loaded onto 4-14% NuPage Bis-Tris gels following the manufacturer's protocols (Invitrogen). Membranes were blocked with 5% nonfat milk in Tris-buffered saline (TBS) including 0.1% Tween-20 and incubated with primary antibodies overnight at 4° C. Primary antibodies were detected with horseradish peroxidase-labeled secondary antibodies (Promega). Immunoreactive proteins were detected by enhanced chemiluminescence (GE Healthcare). Primary antibodies to the following proteins were used: α-1-microglobulin and β-actin (Abcam), and GAPDH (US Biological).
Roscovitine was administered ad libitum to jck mice from 26 to 64 days of age by mixing in powdered 5053 diet at 0.2%. The GCSi (Genz-123346) was administered ad libitum to jck mice from day 26 to day 64 after birth by mixing in powdered 5053 diet at 0.225% (Natoli et al., Nature Med. 16:788-792, 2010). Chronic and pulse treatment with S-CR8 was performed by daily intraperitoneal injection with 24 mg/kg starting from day 26 after birth. Urine was collected for 24 hours consecutively (at day 26, 33, 41, 48, and 64 after birth) over a 5-week period from animals with a range of disease severity measured by kidney to body weight ratio (K/BW) and cystic percentage (C %).
A second set of experiments was performed in jck mice to determine a second CDK inhibitor, S-CR8, would decrease both AMBP levels and kidney volume. In these experiments, the jck animals were administered one of the following treatment schedules starting at day 26 after birth: (A) daily intraperitoneal injection with 24 mg/kg S-CR8 for five weeks; (B) daily intraperitoneal injection with 24 mg/kg S-CR8 for three weeks, and two weeks with no treatment; and (D) daily intraperitoneal injection with 24 mg/kg S-CR8 for one week and four weeks with no treatment (FIG. 18). As a control, jck animals were administered a vehicle between day 26 to day 64 after birth.

jck mice = assay: Treatment of jck mice (PKD model): kidney volume / cyst volume; type: in vivo, mouse
Procedure: C57BL/6J jck/+ mice were maintained for mating. Cystic jck/jck mice were genotyped as previously described (Smith et al., J. Am. Soc. Nephrol. 17:2821-2831, 2006). […] conditional knockout mice were generated as described previously (Natoli et al., Nature Med. 16:788-792, 2010). The […] gene was deleted by inducing the Cre recombinase activity with tamoxifen delivered in sunflower oil (Sigma-Aldrich, St. Louis, MO), on postnatal day 1 with 100 mg/kg.
A jck mouse model of PKD (Smith et al., J. Am. Soc. Nephrol. 17:2821-2831, 2006) was used to assess the expression of AMBP. Jck mice are characterized by development of moderately progressive renal cystic disease. Kidneys from the jck mouse model are enlarged by day 26 after birth and have multiple cysts. […] Renal function in jck mice, as measured by serum creatinine and blood urea nitrogen, progressively elevates over time. […] Cysts originating from the proximal tubules are not detected in jck mice (Smith et al., J. Am. Soc. Nephrol. 17:2821-2831, 2006).
Roscovitine was administered ad libitum to jck mice from 26 to 64 days of age by mixing in powdered 5053 diet at 0.2%. […] Urine was collected for 24 hours consecutively (at day 26, 33, 41, 48, and 64 after birth) over a 5-week period from animals with a range of disease severity measured by kidney to body weight ratio (K/BW) and cystic percentage (C %). […]

[1] = 0.225% in diet day 26 to day 64 after birth, day 64, vs vehicle (FIG. 22)
[2] = oral 0.2% in feed day 26 to day 64 after birth, day 64, vs vehicle (FIG. 17)

For CCCCCCCCC(=O)N[C@H](CN1CCCC1)[C@H](O)c1ccc2c(c1)OCCO2 [Genz-123346], which “AMBP levels in kidney tissue samples” value (AMBP protein; [1]) is on record?
The value was “decrease”.

And the “AMBP levels in urine samples” value (AMBP protein; [1])?
The value was “decrease”.

Which results are given for CC[C@@H](CO)Nc1nc(NCc2ccc(-c3ccccn3)cc2)c2ncn(C(C)C)c2n1 [S-CR8]?
urine AMBP protein levels (AMBP protein; daily intraperitoneal 24 mg/kg from day 26, all tested schedules (A, B, D), urine at day 64, vs vehicle (FIGS. 20 and 21)): decrease; cyst volume (cystic volume as percentage of body weight, FIG. 19) (jck mice; daily intraperitoneal 24 mg/kg from day 26, all tested schedules (A 5 weeks, B 3 weeks, D 1 week), vs vehicle): decrease

Which “AMBP protein levels in kidney samples” value (AMBP protein; [2]) does the source give for CC[C@H](CO)Nc1nc(NCc2ccccc2)c2ncn(C(C)C)c2n1 [roscovitine] here?
The value was “decrease”.

And the “AMBP protein levels in urine” value (AMBP protein; [2])?
The value was “decrease”.

And the “kidney volume (kidney to body weight, FIG. 16)” value (jck mice; oral 0.2% in feed day 26 to day 64 after birth, measured at day 64, vs vehicle)?
Its value is “decrease”.
